Experimental data taken from paper PMC5698418 (Nature Communications, 2017).

Legend:
[1] = tested on: acetyl-H3K9; assay: Acetyl-H3K9 immunofluorescence in neuronal nuclei (multiplexed in screen); format: cell-based, mouse; conditions: screen, 16.7 µM
Description: To increase the throughput of our pharmacological screening for modulators of Arc, the above mentioned assay was adapted to cultures of mouse primary cortical neurons in 96-well plates.
Screening of compounds in the chemogenomic library was carried out using DIV13 primary forebrain cortical neurons cultured on poly-L-lysine/laminin-coated 96-well plates (Ibidi USA, Madison, WI). Cells were seeded at a density of 30,000 cells per well and treated with the compound library and BDNF according to the experimental design presented in Fig. 3a. After experimental treatment, cells were processed for Arc and acetyl-H3K9 immunocytochemistry according to the protocol described above. Both antigens (Arc and acetyl-H3K9) were imaged using an IN Cell Analyzer 6000 imaging system and a ×40 objective. […] High-throughput quantification of nuclear Arc immunofluorescence signal was performed in a similar fashion than the low-throughput procedure described above but with the exception that acetyl-H3K9 was used as a nuclear mask to guide the automated quantification of nuclear Arc immunofluorescence signal.

[2] = target: T1, HDAC2 (Homo sapiens, UniProt Q92769); assay: Biochemical HDAC assay (BPS Bioscience), HDAC2; conditions: 25 µM
T1 construct: purchased BPS Bioscience (San Diego, CA), contract assay service

[3] = tested on: Arc puncta in dendrites of primary cortical neurons; assay: Arc puncta along Map2-labeled dendrites (immunocytochemistry); format: cell-based, mouse; conditions: 16.7 µM with BDNF, vs untreated and BDNF alone; for BDNF: BDNF alone vs untreated
Source text: Chemical structure of each compound is presented on top. b Graphs show mean (n = 5) Arc/β-actin ratio (±SEM) for cells treated as in a. […] Tukey’s HSD post hoc test, *p < 0.05; **p < 0.01, ***p < 0.005; ****p < 0.0001. […] Representative captures of DIV14 mouse primary cortical neurons from each experimental condition co-immunostained for Arc (red fluorophore) and Map2 (green fluorophore). White arrowheads show examples of discrete Arc puncta. […] Tukey’s HSD post hoc test, *p < 0.05; ***p < 0.005; ****p < 0.0001
Indirect immunofluorescence detection of antigens was carried out using cortical neurons cultured on poly-L-lysine/laminin-coated coverslips in 24-well plates at a density of 0.1 × 10^7 per well. After experimental treatment, cells were washed twice with PBS and fixed for 30 min at room temperature with 4% paraformaldehyde in PBS. After fixation, cells were washed twice with PBS, permeabilized with PBST (PBS + 0.25% Triton X-100) for 20 min, blocked in blocking solution (PBS + 5% normal goat serum) for another 30 min, and finally incubated overnight at 4 °C with the first primary antibody in blocking solution. The next day, coverslips were extensively washed with PBS and incubated for 2 h at room temperature in the appropriate fluorophore-conjugated secondary antibody solution (Alexa 488- or Alexa 594-conjugated secondary antibody (Molecular Probes, Invitrogen) in blocking solution). After washing with PBS, the coverslips were incubated again overnight in primary antibody solution for the second antigen, and the procedure for conjugation of the fluorophore-conjugated secondary antibody was repeated as above. Finally, cell nuclei were counterstained with 4′,6-diamidino-2-phenylindole (DAPI), and coverslips were mounted on glass slides with ProLong Antifade reagent (Invitrogen).
Quantification of surface GluA1 puncta was performed according to the following strategy. First, overlapping digital images of GluA1 and Map2 immunostainings were collected using a Zeiss AxioObserver Z1 inverted microscope and ×63 oil immersion objective. Second, thresholding and segmentation based on the Map2 images was used to remove GluA1 signals outside of dendritic processes. Importantly, the same background/foreground cutoff threshold was used for images of all experimental conditions. Third, the length of dendrites for each image set was measured and recorded. Finally, distinct GluA1 foreground objects along dendrites >5 pixels were counted using the particle analysis tool in ImageJ and presented as the average number of GluA1 puncta per µm of dendrite length for each experimental condition.

[4] = tested on: acetyl-H3K9 in dentate gyrus; assay: Acetyl-H3K9 immunohistochemistry in dentate gyrus after intraperitoneal injection; format: in vivo, mouse; conditions: 30 mg kg−1 i.p., 3 h, home cage
Description: Male mice (C57BL/6 strain) were received as 6-weeks old and habituated to their home cage as trios for 2 weeks before conducting the experiments. During the habituation time period, mice were kept on a light–dark cycle with minimal disruption and unrestricted access to food and water. On experiment day, mice from the same cage were taken and randomly subjected to intraperitoneal injection of vehicle (25% Kolliphor EL (Sigma-Aldrich, C5135), 10% DMSO) or AK-7 (30 mg kg^−1) solution and immediately placed back in their home cage or transferred to a novel environment. […]
The following approach was adopted to quantify the number of Arc-positive cell bodies and average acetyl-H3K9 immunostaining pixel intensity in dentate gyrus. First, complete dentate gyrus overlapping grayscale images of DAPI fluorescence and Arc or acetyl-H3K9 immunostaining were collected using a ×20 objective and Nikon Eclipse 90i upright microscope equipped with a motorized stage and image stitching capability. Second, the boundary of the dentate gyrus based on the DAPI fluorescence was determined in each image set with the ImageJ wand tool. Finally, this information was used for image segmentation and quantification of Arc-positive cell bodies or average acetyl-H3K9 immunostaining pixel intensity within each dentate gyrus images. […]

T1 sequence (Q92769 whole entry): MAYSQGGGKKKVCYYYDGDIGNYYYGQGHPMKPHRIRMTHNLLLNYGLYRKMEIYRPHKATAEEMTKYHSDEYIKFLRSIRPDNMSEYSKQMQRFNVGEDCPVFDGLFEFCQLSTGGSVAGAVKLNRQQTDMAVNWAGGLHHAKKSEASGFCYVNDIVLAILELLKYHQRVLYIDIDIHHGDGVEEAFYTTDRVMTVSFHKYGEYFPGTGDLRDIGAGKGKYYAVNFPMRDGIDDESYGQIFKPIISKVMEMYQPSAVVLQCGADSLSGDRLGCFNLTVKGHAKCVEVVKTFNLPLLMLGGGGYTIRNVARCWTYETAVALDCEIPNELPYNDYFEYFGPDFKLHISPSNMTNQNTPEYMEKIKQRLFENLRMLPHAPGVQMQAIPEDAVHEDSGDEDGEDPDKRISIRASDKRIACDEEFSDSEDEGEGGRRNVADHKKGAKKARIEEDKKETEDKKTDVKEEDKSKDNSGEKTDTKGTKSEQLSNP

O=C(Nc1cccc(Br)c1)c1cccc(S(=O)(=O)N2CCCCCC2)c1 [AK-7]
impact on acetyl-H3K9 immunofluorescence (Z-score) [1]: increasing effect of intermediate intensity | inhibitory activity toward HDAC2 [2]: failed to show any inhibitory activity | number of Arc puncta in dendritic projections [3]: significantly greater number of Arc puncta | acetyl-H3K9 immunofluorescence staining intensity in dentate gyrus vs vehicle [4]: small but statistically significant increase
